# Measured values: PMC9738927, “A Newly Identified Monoterpenoid-Based Small Molecule Able to Support the Survival of Primary Cultured Dopamine Neurons and Alleviate MPTP-Induced Toxicity In Vivo” (Molecules, 2022)
# Several values for one entry are separate records, joined by “and”; a condition that tells them apart may be missing. Equal values may be shown once.
# Legend:
# [1] = system: naïve primary midbrain dopamine neurons; assay: Survival of naïve cultured dopamine neurons (TH-positive cell count); type: cell-based, mouse
# Procedure: We developed a compound library containing 20 diol derivatives and screened them on cultured primary DA neurons (Supplementary Materials, Table S1). Compounds were taken at a dose of 0.1 and 1 μM (based on effective doses for the epoxydiol). Based on the screening results, we selected four compounds and tested them in a naïve and MPP^+-treated (1-methyl-4-phenylpyridinium (MPP^+), the neurotoxic metabolite of MPTP) DA culture at 1, 10, and 100 nM to select the compound with the lowest effective dose.
# The survival of cultured mouse DA neurons was assessed as described before. Briefly, naïve or MPP^+ (dopaminergic selective neurotoxin)-challenged embryonic midbrain neurons were cultured in the presence or absence of a diol-like compound. The number of survived DA neurons was estimated after immunocytochemical staining with antibodies recognizing the key enzyme of dopamine synthesis—tyrosine hydroxylase.
# [2] = Pharmacokinetics in whole blood after a single oral dose (HPLC-MS/MS); type: in vivo, CD1 IGS mice; details: single oral 10 mg/kg
# Procedure: Six CD1 IGS mice were administered orally with the compound PA96 in Tween 80 at doses of 10 mg/kg. Blood was collected from the tail after the amputation of a small distal piece. Time points were 5, 10, 30, 60, and 120 min after injection. Experimental blood samples were transferred into tubes for the precipitation of blood proteins with a mixture of zinc sulfate and methanol (2:8, v/v). A set of calibrators were prepared in advance, followed by their preparation protocol, and analyzed by HPLC-MS/MS for standard comparison. The calibration curve was built in the range of 25–2000 ng/mL. According to the signal-concentration profile, the content of PA96 in the experimental blood samples at each time point was calculated.
# The stock solution of PA96 (1.0 mg/mL) was prepared by dissolving an accurately weighed amount of the substance in 100% methanol. To obtain a set of working solutions with concentrations of 0.01, 0.05, 0.1, 0.25, 0.5, 1, 2.5, 5, 7.5, 10, 15, and 20 µg/mL, the stock solution of PA96 was diluted with methanol. Calibration standards (calibrators) were prepared by mixing 10 μL of each individual working solution and 90 μL of mouse whole blood. Samples were stirred gently on an orbital shaker at 1000 rpm and left at 4 °C for 1 h for equilibration. The stock solution of IS with a concentration of 1.0 mg/mL was prepared by dissolving a weighed amount of 2-adamantylamine hydrochloride in pure methanol. The solution for the protein precipitation procedure was a mixture of 2 parts of 0.2 M aqueous solutions of zinc sulfate per 8 parts of a solution of IS in methanol with a concentration of 10 µg/mL. All solutions were stored at −18 °C and brought to their ambient temperature before use.
# An aliquot of 10 µL of each whole blood sample was placed into an Eppendorf microtube (1.5 mL), then the precipitation solution of 50 µL was added to each tube. All samples were vortexed for 20–30 s and then centrifuged (Eppendorf MiniSpin, Eppendorf, Germany) for 10 min at 13,400 rpm. The supernatant was transferred into a chromatographic vial and analyzed.
# The LC-MS/MS analysis was performed using an LC-20AD Prominence chromatograph equipped with an autosampler thermostated at +10 °C (Shimadzu, Japan) and a 3200 QTRAP mass spectrometer equipped with an ESI source (AB SCIEX, USA). Separation was achieved on a ProntoSil-120-5-C18 AQ column (2.0 × 75 mm, 5 μm particles, (EcoNova, Novosibirsk, Russia)) thermostated at +35 °C. The mobile phase was composed of water containing 0.1% formic acid (eluent A) and methanol containing 0.1% formic acid (eluent B). The gradient elution program was as follows: 0 min-10% (B); 0.5 min-10% (B); 7 min-98% (B); 9 min-98% (B); the flow rate was 200 μL/min.
# The mass spectrometer was operated using multiple reaction monitoring (MRM) in positive ion mode. Ionization was conducted by applying a voltage of 5500 V, and the source temperature was set at +350 °C. For the analyte and IS, the optimized source parameters, viz. CUR (curtain gas), GS1 (Gas 1), and GS2 (Gas 2) were set at 20 psi. The CAD (collisionally activated dissociation) gas was nitrogen, and the parameter was set as high. The parameters of PA96, viz. MRM transitions, declustering potentials (DP), collision energies (CE), and collision cell exit potentials (CXP) are presented in Table 3. The dwell time was 100 msec. Analyst 1.6.2 software (AB SCIEX, USA) was used for instrument control and data acquisition, and MultiQuant 2.1 software (AB SCIEX, USA) was used for quantification. To calculate the main pharmacokinetic parameters, the Microsoft Excel–PKSolver was used.
# [3] = CD1 IGS, mouse, whole blood, blood
smiles,measurement,setting,value
"C=C(C)[C@@H]1CC=C(C)[C@@H](Sc2nc[nH]n2)[C@@H]1O [PA96, (1R,2R,6S)-2-(1H-1,2,4-triazol-3-ylthio)-3-methyl-6-(prop-1-en-2-yl)cyclohex-3-enol]",potency relative to epoxydiol in the survival assay,[1]; PA96 vs epoxydiol,up to 100 times
same,effective concentration in survival assay for DA neurons,[1]; cultured DA neurons,1 nM and 1−10 nM
same,cytotoxicity in in vitro experiments,[1]; naive neurons and with MPP+,neither cytotoxic effect in naive neurons nor increased cytotoxicity
same,number of TH-positive neurons greater than in vehicle-treated wells,"[1]; naïve neurons, 1 nM, p = 0.04",40%
same,half-life,"[2]; CD1 IGS, mouse, whole blood, po, 10 mg/kg, blood",~24 min
same,AUC0-t,[2]; [3],278 ng·h/mL
same,Cmax,[2]; [3],550 ng/mL
same,Tmax,[2]; [3],5 min
same,AUC(0-inf),"[2]; CD1 IGS, mouse, whole blood, blood, read-out: AUC0-inf_obs",290 ng·h/mL
same,MRT inf,"[2]; CD1 IGS, mouse, whole blood, blood, read-out: MRT0-inf_obs (converted)",29.7 min
same,Cl/F_obs,[2]; blood,(5.8 ± 0.6) × 10^−4 (mg/kg)/(ng/mL)/min
same,Vz/F_obs,[2]; blood,(18.9 ± 0.6) × 10^−3 (ml/kg)/(ng/mL)
same,time at which the minimum detectable concentration in blood was observed,[2],1 h
